Earlier results in patent US5047425A, “Amine derivatives having cardiovascular activity” (Simes Societa Italiana Medicinali & Sintetici SpA, priority 1987, dated 1991).

Details: literature: McKenna 1966; Whitsitt 1967; cited from earlier work

Q: Which “cardiac output” value does the source give for `CC(C)NCC(O)COc1cccc2ccccc12` (centres unmarked) [Propranolol] here?
A: Its value is “depresses at the same time the cardiac output”.

Q: What about the “coronary flow” value of the same compound?
A: Its value is “depresses at the same time the cardiac output and the coronary flow”.
